The nature of series [1]: Free (non liposomal) and total bupivacaine determination by HPLC (% free BUP in the preparation). In kind it is physicochemical. To be noted: Example 2 samples. The protocol: Bupivacaine determination: free (non liposomal) or total (liposomal plus free) concentration of bupivacaine was measured by HPLC (Grant et al Parm. Res., 2001 18, N3, 336-343; Anesthesiology, 2004, 101, 133-137).
Drug/lipid ratio determination for hydrogel beads: The washed beads were injected through a 25G×⅝″ (0.5 mm×16 mm) syringe needle to have homogenous dispersion and were diluted ×10 with saline: • 50 μl and 100 μl used for PL. determination. • 100 μl centrifuged 10′ 2000 g at 4° C. and the supernatant diluted ×10 with isopropanol (IPA) to determine free bupivacaine. • 100 or 200 μl heated in boiling water, than centrifuged 10′ at 2000 g. The supernatant was diluted ×10 with IPA to determine total bupivacaine by HPLC.
All samples for bupivacaine determination were centrifuged for 2 min. at 5000 g (using Eppendof centrifuge) after dilution in IPA. The upper phase was removed and analyzed by HPLC.
All liposomal formulations were analyzed for free non liposomal BUP and total BUP before the in vivo experiment followed by their concentration to reach the level of 2% (w/w) BUP (for liposome formulations #1, 2, 3, 5, 6, 8) and to 1% (w/w BUP for liposome formulations #4 & 7). BUP was loaded into the liposomes either by active loading (CA or AS gradient) or by passive loading as described in Table 8.
Free Bup (Non Liposomal Bup) Determination: […]

Another series concerns male Swiss-Webster mice. Nature of the series: Analgesic efficacy in mouse model: electrical stimulation of abdominal skin, vocalization threshold, analgesia score and duration. In kind it is in vivo. Also on record: key to analgesia score 150′ / analgesia score 5′ / analgesia score 30′ / analgesia score 60′ / analgesia score 75′ / analgesia score 90′ / analgesia score 105′ / analgesia score 120′ / analgesia score 135′: If the anesthesia was complete the numeric value given was 1.0; when analgesia was partial (incomplete) it received the numeric value of 10.0 in the Table 1 and in other Tables a score of 0.5; for no anesthesia the numeric score was 0. An excerpt:
Analgesic efficacy in male Swiss Webster mouse model: Testing for analgesia was done by electrical stimulation of mice skin as described elsewhere (G. J. Grant et al, Pharmaceutical Research, 18, no 3, 336-343, 2001). Pain as electrical stimulation at the desired intensity was inflicted to the skin of shaved mice abdomen. The current generator (model S48, Grass Instruments (W. Warwick, R.I. USA) was used. Mice (male Swiss-Webster, 26±3 gr (n=7 per group) were used. The mice were shaved the hair overlying the abdomen and tested prior to injection to determine the Individual vocalization threshold of each mice. Than the mice were injected with (0.3-0.4 ml of one of the following: free bupivacaine, or LMVV-BUP or various LMVV entrapped in Ca-alginate or chitosan-oxalate cross linked hydrogels through 30G needle. The analgesia duration was than followed as specified in the experiment itself. All experiments were approved and ratified by the HUJI ethic committee.
Analysis of the in vivo mice analgesia: A numerical score to the spreadsheet was introduced for the evaluation of the analgesic effect of various liposome preparations performance in vivo: For each time period (e.g. 4 hrs, 8 hrs etc) a numeric value to each mouse in the experiment was given. If the anesthesia was complete the numeric value given was 1.0; when analgesia was partial (incomplete) it received the numeric value of 10.0 in the Table 1 and in other Tables a score of 0.5 and for no anesthesia the numeric score was 0. The mean for each subgroup was calculated separately (i.e. 1% 300 μl, 2%[…]).
Testing for analgesia was done by electrical stimulation of the skin directly overlying the abdomen at the site of injection using a current generator (model S48, Grass Instruments) as described in Grant et al 2001. (G. J. Grant et al, pharmaceutical research, vol 18, no 3, 336-343, 2001), and in Methods above.
Mice (male Swiss-Webster 26±3 gr) were tested prior to injection to determine the vocalization threshold than were injected with liposomal BUP or free BUP than followed by determination of analgesia duration (The duration of the main in vivo screening study was 2 days and started after a preliminary study using two different injection volumes of formulation #4 (referred to as the PILOT in Table 9A) was performed. […]
Testing for analgesia was performed by electrical stimulation of mice skin as described elsewhere (G. J. Grant et al, Pharmaceutical Research, 18, no 3, 336-343, 2001). Pain by electrical stimulation at the desired intensity was applied to the skin of shaved mice abdomen. The current generator (model S48, Grass Instruments (W. Warwick, R.I. USA) was used. Mice (male Swiss-Webster, 26±3 gr (n=8 per group) were used. The mice were shaved the hair overlying the abdomen and tested prior to injection to determine the Individual vocalization threshold of each mice. Than the mice were injected through 30G needle with 0.25 ml of one of the following formulation: • 1—Alginate beads containing LMVV-BUP (010609), were stored at 4 c for 2 months in 0.5% bup, PH=5.5 (see B3). The external solution of the beads were removed before injection without washing them. • 2—Alginate beads containing LMVV-BUP (010609), were stored at 4 c for 2 months in 2% bup, PH=5.5 (see B3). The external solution of the beads were removed and the beads washed (2.5 ml saline×5) before injection. • 3—Alginate beads containing LMVV-BUP (010609), were stored at 4 c for 2 months in 1% bup, PH=5.5 (see B3). The external solution of the beads were removed before injection without washing them. • 4—Alginate beads containing LMVV-BUP (010609), were stored at 4 c for 2 months in saline, PH=5.5 (see B3). The external solution of the beads were removed before injection without washing them. • 5—LMVV-BUP (010609) were stored at 4 c for 2 months in saline PH=5.5. • 6—BLANK: Aginate beads containing LMVV without bup, were stored at 4 c for 2 months in saline PH=5.5. […]

Where “and” joins values, the source holds several entries; their conditions need not be identical. Identical values can stand only once.

Regarding `CCCCN1CCCCC1C(=O)Nc1c(C)cccc1C` (stereo not drawn) [compound 9], the “Free bup concentration(%) after injection through G31 syringe needle” value in series [1] (analyzed after the experiment was finished) and in series [1] (analyzed before starting the experiment) was 0.25% each time. Further, in the series on male Swiss-Webster mice (Example 2, mice), the “analgesia duration, comparison of Example 2 formulations” value was “shortest analgesia duration”. For the same compound, the “analgesia score 5′” value in the series with male Swiss-Webster mice (Example 2 group 9, per mouse, 0.25% bup 300 ul, 5 min) came to 1. For the same compound, the “analgesia score 30′” value with male Swiss-Webster mice (Example 2 group 9, per mouse, 0.25% bup 300 ul, 30 min) stood at 1. Besides, the “analgesia score 60′” value with male Swiss-Webster mice (Example 2 group 9, per mouse, 0.25% bup 300 ul, 60 min) is listed as 1. Also, in the series with male Swiss-Webster mice (Example 2 group 9, per mouse, 0.25% bup 300 ul, 75 min, listed as standard free bupivacaine), the “analgesia score 75′” value is 1 (3×) and 0 (2×). Besides, the “analgesia score 90′” value in the series with male Swiss-Webster mice (Example 2 group 9, per mouse, 0.25% bup 300 ul, 90 min, listed as standard free bupivacaine) is 1 (3×) and 0 (2×). In addition, the “analgesia score 105′” value with male Swiss-Webster mice (Example 2 group 9, per mouse, 0.25% bup 300 ul, 105 min, listed as standard free bupivacaine) is 1 and 0 (2×). Further, the “analgesia score 120′” value in the series on male Swiss-Webster mice (Example 2 group 9, per mouse, 0.25% bup 300 ul, 120 min, listed as standard free bupivacaine) was 0.5 and 0 (2×). Also, the “analgesia score 135′” value in the series with male Swiss-Webster mice (Example 2 group 9, per mouse, 0.25% bup 300 ul, 135 min) worked out at 0. For the same compound, the “analgesia score 150′” value with male Swiss-Webster mice (Example 2 group 9, per mouse, 0.25% bup 300 ul, 150 min) stood at 0.

For the origin of these results see patent US9713591B2, “Composition of matter comprising liposomes embedded in a polymeric matrix and methods of using same” (Yissum Research Development Company of the Hebrew …, priority 2008, dated 2017).
